# Laboratory results reported in patent US20140051662A1 (priority 2011, published 2014).
# Read-outs that look alike come from different tables or passages of the source.
# Experiments:
# [1] = system: human cord blood mast cells; settings: cited from earlier work
# intrinsic PDGF receptor = experiment: tyrosine phosphorylation in Ba/F3 cells (Western), PDGF receptor positive control; format: cell-based; settings: FIG. 1B
# [2] = system: FGFR3 expressing Ba/F3 cells; experiment: proliferation of FGFR3 expressing Ba/F3 cells; format: cell-based, mouse; settings: FIG. 1A, dose-dependent
# Procedure: (§1) [6-^3H] thymidine (Amersham Biosciences, UK) was added (1 μCi/well) for 16 hours. Thymidine incorporation was measured by liquid scintillation counting (Wallace, PerkinElmer). All experiments were performed in triplicate.
# [3] = system: RPMI 8226 cells (t(4;14) negative); experiment: thymidine proliferation assay, RPMI 8226; format: cell-based, human
# Procedure: (§2) Multiple myeloma cell lines RPMI 8226, U266 (t(4;14) negative) and OPM2, LP1, NCI-H929 (t(4;14) positive) were cultured in RPMI medium (Gibco-BRL) supplemented with 10% fetal calf serum (FCS, Life Technologies), 100 units/ml penicillin, 100 μg/ml streptomycin, except LP1 which were cultured in DMEM (Gibco-BRL). Bone marrow plasma cells were CD138-selected using MACS systems (Miltenyi Biotec, Germany). […] [6-^3H] thymidine (Amersham Biosciences, UK) was added (1 μCi/well) for 16 hours. Thymidine incorporation was measured by liquid scintillation counting (Wallace, PerkinElmer). All experiments were performed in triplicate.
# [4] = system: patients with relapsed or refractory t(4;14) multiple myeloma
# [5] = system: U266 cells (t(4;14) negative); experiment: thymidine proliferation assay, U266; format: cell-based, human
# Procedure: as §2
# [6] = system: OPM2 cells (t(4;14) positive); experiment: thymidine proliferation assay, OPM2; format: cell-based, human
# Procedure: as §2
# [7] = system: NCI-H929 cells (t(4;14) positive); experiment: thymidine proliferation assay, NCI-H929; format: cell-based; settings: Homo sapiens
# Procedure: as §2
# [8] = system: fresh plasma cells from patients with t(4;14) multiple myeloma expressing FGFR3; experiment: proliferation of fresh plasma cells from patients; format: cell-based, human
# Procedure: as §1, with “Bone marrow plasma cells were CD138-selected using MACS systems (Miltenyi Biotec, Germany). […] [6-^3H]” for “[6-^3H]”
# [9] = system: LP1 cells (t(4;14) positive); experiment: thymidine proliferation assay, LP1; format: cell-based, human
# Procedure: as §2
# [10] = system: intracellular domain of FGFR3; experiment: tyrosine phosphorylation in Ba/F3 cells (Western), FGFR3; format: cell-based, human; settings: masitinib 1 μM, 10 ng/ml FGF
# Lyn = Lyn (Homo sapiens, UniProt P07948); experiment: inhibition of Lyn kinase
# Sequence of Lyn (P07948 whole entry, species assumed): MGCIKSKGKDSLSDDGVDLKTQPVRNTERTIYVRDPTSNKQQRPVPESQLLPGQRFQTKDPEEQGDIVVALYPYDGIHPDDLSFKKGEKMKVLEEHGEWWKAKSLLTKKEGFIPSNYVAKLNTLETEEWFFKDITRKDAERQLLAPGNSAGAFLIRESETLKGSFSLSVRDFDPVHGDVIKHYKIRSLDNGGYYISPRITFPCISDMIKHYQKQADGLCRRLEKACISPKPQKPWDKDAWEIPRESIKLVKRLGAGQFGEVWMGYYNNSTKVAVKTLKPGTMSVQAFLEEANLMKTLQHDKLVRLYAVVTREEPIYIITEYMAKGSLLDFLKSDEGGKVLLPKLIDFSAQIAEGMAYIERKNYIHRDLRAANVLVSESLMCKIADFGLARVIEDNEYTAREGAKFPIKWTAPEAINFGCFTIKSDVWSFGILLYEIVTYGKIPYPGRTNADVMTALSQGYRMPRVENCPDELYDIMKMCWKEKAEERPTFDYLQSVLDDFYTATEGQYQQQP
# [11] = system: patients with relapsing or refractory multiple myeloma; experiment: open-label phase 2 study, masitinib plus bortezomib/dexamethasone (VD); format: in vivo, human
# Excerpt: Initially, this study was to investigate the safety and efficacy of masitinib administered in combination with the chemotherapy regimens of masitinib plus (dexamethasone/bortezomib/thalidomide); or masitinib plus (dexamethasone/bortezomib/adriamycin). However, after early preliminary results both these latter arms were eliminated from the study due to a tendency of higher incidence of adverse events or because these were not considered a gold standard treatment in this pathology. […] Velcade: 1.3 mg/m^2 intravenously; Level 1: Days 1 and 4; Level 2: Days 1, 4, 8 and 11 Dexamethasone: 40 mg/day, orally; Level 1: Days 1 to 4; Level 2: Days 1 to 4, 8 and 11 Adriamycin: 9 mg/m2 intravenously (bolus or perfusion); Days 1 to 4 Thalidomide: 200 mg/day, orally, once daily in the evening […] The two dosing regimens of the bortezomib plus dexamethasone combination (VD) were successively tested. After the observation that a low level of VD was well tolerated in four patients, the following patients were treated at a higher level. Included were patients with refractory or relapsing multiple myeloma: • With t(4; 14) translocation regardless of FGFR3 status, i.e. expressing FGFR3 or not; • or without a t(4; 14) translocation and relapsing within 1 year after the first line therapy including or not bone marrow transplantation. All patients were to receive combination therapy for the planned number of cycles or until disease progression, after which they could continue with masitinib plus dexamethasone in an extension phase.
# [12] = beyond first relapse, aggressive relapse
# [13] = beyond first relapse, non-aggressive relapse
# [14] = masitinib plus dexamethasone combination therapy
# [15] = more than two previous lines (beyond first relapse)
# [16] = second line of treatment (first relapse)
# [17] = 13 patients receiving VD as second line therapy (first relapse)
# [18] = cohort VD Level 2, two patients
# [19] = masitinib plus VD, all 17 patients
smiles,measurement,setting,value
"Cc1ccc(NC(=O)c2ccc(CN3CCN(C)CC3)cc2)cc1Nc1nc(-c2cccnc2)cs1 [masitinib, 4-(4-methylpiperazin-1-ylmethyl)-N-[4-methyl-3-(4-pyridin-3ylthiazol-2-ylamino)phenyl]benzamide]",FcεRI-mediated degranulation,[1],inhibition
same,phosphorylation of the PDGF receptor,intrinsic PDGF receptor,Inhibition
same,growth of BaF3 cell expressing the intracellular kinase domain of FGFR3,[2],inhibited
same,effect on proliferation,[3],no effect
same,patients with rashes,[4]; 2 patients,8.3%
same,patients with suspected diarrhea,[4]; 10 patients,41.7%
same,patients with drug-related edema,[4]; 13 patients,54.2%
same,patients with nausea and/or vomiting,"[4]; 16 patients, suspected AE",66.7%
same,patients with suspected masitinib-related (or not assessable) adverse events,[4]; 21 of 24 patients,87.5%
same,"suspected masitinib-related (or not assessable) adverse events, total number",[4]; 24 patients,145
same,median overall survival,[4]; all 24 patients,19.8 months
same,median progression free survival (PFS),[4]; all 24 patients,3.9 months
same,survival,[4]; all patients with unsatisfactory response to previous treatment or in first relapse,at least 1 year
same,median overall survival,[4]; [12],8.1 months
same,median progression free survival (PFS),[4]; [12],2.1 months
same,median overall survival,[4]; [13],25.4 months
same,median progression free survival (PFS),[4]; [13],3.9 months
same,patients who discontinued because of AEs suspected to be masitinib-related,[4]; five patients,20.8%
same,patients with severe edema,[4]; in vivo,two
same,patients with severe nausea,[4]; in vivo,Three
same,patients with Minor Response,[4]; [14],5 patients
same,patients with very good partial response (IMWG criteria),[4]; [14],one
same,response in patients with aggressive relapse,[4]; [14],No response
same,median overall survival,[4]; [15],8.6 months
same,median progression free survival (PFS),[4]; [15],3.0 months
same,patients still alive after 2 years,[4]; overall,43.5%
same,median overall survival,[4]; [16],35.7 months
same,median progression free survival (PFS),[4]; [16],9.1 months
same,patients with at least one suspected masitinib-related (or not assessable) serious adverse event,[4]; seven patients,29.2%
same,patients with severe suspected adverse events (non-hematological grade 3/4),[4]; seven patients,29.2%
same,patients with acute renal failure,[4]; severe,two
same,proliferation,"[5]; U266, t(4;14) negative",significantly and dose-dependently decreased
same,anti-proliferative interaction with dexamethasone,"[5]; combination with dexamethasone, U266",synergy
same,reduction of proliferation compared to dexamethasone alone,"[5]; masitinib added to dexamethasone, 5 times less dexamethasone, U266",7 fold
same,anti-proliferative interaction with dexamethasone,[6]; combination with dexamethasone,synergy
same,reduction of proliferation compared to dexamethasone alone,"[6]; masitinib added to dexamethasone, 5 times less dexamethasone",2 fold
same,inhibition at 2 µM,[7],50%
same,proliferation,[8],inhibited
same,inhibition at 2 µM,"[9]; Homo sapiens, LP-1",50%
same,anti-proliferative interaction with dexamethasone,"[9]; combination with dexamethasone, FGF-activated LP1",synergy
same,reduction of proliferation compared to dexamethasone alone,"[9]; masitinib added to dexamethasone, 5 times less dexamethasone, FGF-activated LP1",2 fold
same,phosphorylation of the intracellular domain of FGFR3,[10],inhibited
same,concentrations at which the kinase is inhibited,Lyn,submicromolar
same,Median PFS,[11]; 4 patients treated at level 1,2.9 months
same,Median OS,[11]; [17],22.3 months
same,Median PFS,[11]; [17],9.3 months
same,Median PFS,[11]; 13 patients treated at level 2,7.4 months
same,Median overall survival (OS),[11]; 13 patients treated at level 2,20.0 months
same,patients with best response of partial response,"[11]; VD as second line therapy, eleven of 12",92%
same,Median overall survival (OS),[11]; all patients,18.1 months
same,grade 4 adverse event suspected to be treatment-related,[11]; cohort VD Level 1,No grade 4 adverse event
same,patients with at least one AE suspected to be treatment-related,"[11]; cohort VD Level 1, 4 patients",All patients
same,patients with at least one AE suspected to be treatment-related,"[11]; cohort VD Level 2, 8 of 13 patients",62%
same,patients with a grade 3 AE suspected to be treatment-related,[11]; [18],15%
same,patients with at least one grade 4 AE suspected to be treatment-related,[11]; [18],15%
same,patients still alive at the cut-off date,"[11]; five of 17 VD patients, 31 Mar. 2010",29%
same,patients with a very good partial response,[11]; intent-to-treat population,five
same,response rate (complete response or partial response),[11]; intent-to-treat population,75%
same,patients with at least one AE suspected to be treatment-related,[11]; [19],71%
same,patients with at least one grade 4 AE suspected to be treatment-related,[11]; [19],12%
same,median progression free survival (PFS),[11]; overall VD population,7.4 months
same,response rate (complete response or partial response),[11]; per-protocol population,86%
same,Median OS,[11]; t(4;14) negative patients,25.3 months
same,Median PFS,[11]; t(4;14) negative patients,9.3 months
same,patients with best response of partial response,"[11]; t(4;14) negative patients, three of five",60%
same,Median OS,[11]; t(4;14) positive patients,17.1 months
same,Median PFS,[11]; t(4;14) positive patients,5.9 months
same,patients with best response of partial response,"[11]; t(4;14) positive patients, 8 out of 10",80%
